5 molecules from patent publication US20110223167A1, “COMBINATION THERAPY USING RECEPTOR TYROSINE KINASE INHIBITORS AND ANGIOGENESIS INHIBITORS” (priority 2001, published 2011) can be followed below.

The assay has as its system progressive squamous cell carcinoma of the superior maxilla. The note with it: for tumor response: weekly: 1200 mg/m^2 Cilengitide Monday and Friday, 200 mg EMD 72000 followed by 1000 mg/m^2 gemcitabine Thursday, from November 2000; for effect on tumor growth: cisplatin (75 mg/m^2) and docetaxel (75 mg/m^2) together, three administrations, from August 1999.
Setting [1] is: EMD 121974 (600 mg/m^2) combined with gemcitabine (1000 mg/m^2), since mid of January 2000.

Protocol: Case History and Clinical Findings/Status at the Start of the Compassionate use Treatment:
A biopsy of the suspected large tumor in the upper maxilla was performed. […] On Aug. […] Due to the unfavourable histologic classification the patient received a post-operative radiation therapy up to 50.4 Gray from September to October 1997.
In July 1998 progression of disease was suspected which led to hospitalization. […] After consultation of radiotherapists another radiotherapy was recommended which started in August 1998. The patient was treated simultaneously with gemcitabine (100 mg) as a radiosensitizer. […] Following the combined radio-chemotherapy the patient received a therapy with 1000 mg gemcitabine (5 circles of 16 administrations).
In March 1999 again progression of the carcinoma occurred which led to additional radiation therapy and palliative resection of the tumor.
Diffuse bleedings out of the large tumor mass required frequent transfusions of erythrocyte concentrates.
Course of Compassionate Use Treatment with Anti-Angiogenic Agent/Chemotherapeutic Agents:
The patient was treated with EMD 121974 and Gemzar from Nov. 17, 1999 until Mar. 30, 2000. From Jun. 04, 2000 until Apr. […] Chemotherapy-treatment was stopped because of haematotoxicity and Cilengitide treatment was continued alone.
The patient's condition worsened after several weeks and the patient was treated with an increased dose of 1200 mg/m^2 EMD 121974 twice weekly.
Treatment with h425+Cilengitide+Chemotherapeutics:
EMD 72000 was first given in November 2000 in a dosage of 200 mg (infusion over half an hour) after premedication with dexamethasone/dimetindenmaleate (Fenistil) and ranitidin (Zantic). One week later the patient received additionally gemcitabine (1000 mg/m^2). The weekly treatment schedule was: Monday: 1200 mg/m^2 Cilengitide (one hour is infusion), Thursday 200 mg EMD 72000 (half an hour infusion) followed by 1000 mg/m^2 gemcitabine (one hour infusion), Friday 1200 mg/m^2 Cilengitide (one hour infusion). […] The tumor masses were surgically removed at several occasions.

Consider `CC(C)[C@H]1C(=O)N[C@@H](CCCN=C(N)N)C(=O)NCC(=O)N[C@@H](CC(=O)O)C(=O)N[C@H](Cc2ccccc2)C(=O)N1C` [EMD 121974, Cyclo-(Arg-Gly-Asp-DPhe-NMeVal)], for which the tumor response result is “crater-like disintegration of the tumor mass”. Moreover, where the note is “EMD 121974 (600 mg/m^2) combined with gemcitabine (1000 mg/m^2)”, the “surface of the tumor” value is “signs of granulation and wound healing”. Besides, the tumor bleeding result (EMD 121974 (600 mg/m^2) combined with gemcitabine (1000 mg/m^2), no need for further transfusions) is “Bleeding stopped”. Under setting [1], the hearing entry was “able to hear again on their right ear” and the “increase of mouth opening compared with December 1999” value worked out at 30%. Moreover, the disease status result (EMD 121974 alone, 600 mg/m^2 twice a week, April to June 2000) is recorded as “stable disease”.

On to `N.N.[Cl][Pt][Cl]` [cisplatin, reference compound], for which the “effect on tumor growth” value is “lack of effect on tumor growth”.

As to `CC(=O)O[C@@]12CO[C@@H]1C[C@H](O)[C@@]1(C)C(=O)[C@H](O)C3=C(C)[C@@H](OC(=O)[C@H](O)[C@@H](NC(=O)OC(C)(C)C)c4ccccc4)C[C@@](O)([C@@H](OC(=O)c4ccccc4)[C@H]21)C3(C)C` [docetaxel, reference compound], the “effect on tumor growth” value is “lack of effect on tumor growth”.

For `Nc1ccn([C@@H]2O[C@H](CO)[C@@H](O)C2(F)F)c(=O)n1` [gemcitabine, reference compound], the “tumor response (clinical remission)” value (radiotherapy with simultaneous gemcitabine (100 mg) as radiosensitizer, 6 week-therapy from August 1998) is given as “complete clinical remission”.

As for “EMD 72000: Monoclonal human antibody 425 (h425), Merck KgaA, Germany; anti-EGFR antibody”, the tumor response result was “crater-like disintegration of the tumor mass”.
